The results in this text go back to ChEMBL document CHEMBL1151187, “Antioxidant xanthones from Garcinia vieillardii” (J Nat Prod, 2004).

Each structure is given as a SMILES string. Active and inactive are the calls of the source. No cut-off for these calls is given here.

In the experiment the test system is Radical scavenging activity. Put plainly: Antioxidant activity assessed as DPPH radical scavenging activity. The format is functional. (Loss of DPPH colour is used to gauge radical scavenging.)
Regarding `C=C(c1c(OC)cc(O)c2c(=O)c3ccc(O)c(O)c3oc12)C(C)C`, the result was Active.

With `COc1ccc(O)c(C(C)(C)C)c1.COc1ccc(O)cc1C(C)(C)C`, the outcome was Active.

On to `C=CC(C)(C)c1c(O)cc(O)c2c(=O)c3ccc(O)c(O)c3oc12`, for which the result was Active.
